Laboratory results reported in patent US12391667B2, “N-methyl, n-(6-(methoxy)pyridazin-3-yl) amine derivatives as Autotaxin (ATX) modulators for the treatment of inflammatory airway or fibrotic diseases” (Boehringer Ingelheim International GmbH, priority 2019, dated 2025).

Key:
[1] = molecular target: Human ATX (Homo sapiens (Human), UniProt Q13822); test: Assay A: Biochemical ATX Assay; conditions: 5 nM recombinant ATX, 18:1 LPC substrate, 2 h at room temperature, formation of 18:1 LPA
Experimental: 5 nM recombinant ATX (Cayman Chemicals) was supplemented to 50 mM Tris buffer (pH 8.0) containing 3 mM KCl, 1 mM CaCl2), 1 mM MgCl2 0.14 mM NaCl, and 0.1% bovine serum albumin. Test compounds were dissolved in DMSO and tested in the range of 0.1 nM to 10 μM. The enzymatic reaction (22.5 μL) was started by addition of 2.5 μL 10 μM 18:1 LPC (Avanti Lipids, Alabaster, AL, USA). After 2-h incubation at room temperature, the reaction was stopped by addition of 20 μL water containing 500 nM 20:4 LPA as internal standard and 100 μL 1-butanol for extracting LPA. Subsequently, the plates were centrifuged at 4000 rpm, 4° C., for 2 min. The resultant upper butanol phase was directly used for injection at a RapidFire system (Agilent).
The RapidFire autosampler was coupled to a binary pump (Agilent 1290) and a Triple Quad 6500 (ABSciex, Toronto, Canada). […] 1 The MS was operated in negative mode with a source temperature of 550° C., curtain gas=35, gas 1=65, and gas 2=80. The following transitions and MS parameters (DP: declustering potential and CE: collision energy) for the respective LPAs were determined: 18:1 LPA at 435.2/152.8, DP=−40, CE=−28 and 20:4 LPA at 457.2/152.8, DP=−100, CE=−27).
The formation of 18:1 LPA was monitored and evaluated as ratio to 20:4 LPA.

[2] = molecular target: ATX in human whole blood (Homo sapiens (Human), UniProt Q13822); test: Assay B: Whole-Blood ATX assay; format: biochemical; conditions: 1 h at 37° C., formation of 18:2 LPA
Experimental: 45 μL human whole-blood was supplemented with 5 μL of the test compound, dissolved in phosphate-buffered saline (concentration range 0.12 nM-100 μM). This mixture was incubated for 1 h at 37° C. and stopped by addition of 100 μL 40 mM disodium hydrogen phosphate buffer containing 30 mM citric acid (pH 4) and 1 μM 17:0 LPA (internal standard). LPA was extracted by addition of 500 μL 1-butanol, followed by 10-min centrifugation at 4000 rpm, 4° C. From the resultant organic supernatant, a 200 μL aliquot was transferred into a 96-deep-well plate and transferred to the RapidFire-based MS/MS measurement.
The RapidFire autosampler was coupled to a binary pump (Agilent 1290) and a Triple Quad 6500 (ABSciex, Toronto, Canada). This system was equipped with a 10-μL loop, 5-μL Waters Atlantis HILIC cartridge (Waters, Elstree, UK), 90% acetonitrile containing 10 mM ammonium acetate as eluent A and 40% acetonitrile containing 10 mM ammoniumacetate as eluent B. For details see (Bretschneider et al., SLAS Discovery, 2017, 22, 425-432). The MS was operated in negative mode with a source temperature of 550° C., curtain gas=35, gas 1=65, and gas 2=80. The following transitions and MS parameters (DP: declustering potential and CE: collision energy) for the respective LPAs were determined: 18:2 LPA at 433.2/152.8, DP=−150, CE=−27 and 17:0 LPA at 423.5/152.8, DP=−100.
The formation of 18:2 LPA was monitored and evaluated as ratio to 17:0 LPA.

[3] = system: plasma LPA (ATX inhibition); test: Assay C: In vivo plasma LPA reduction after oral dosing; conditions: rats, 5 mg/kg, 8 hours post application, sum of LPA vs baseline
Experimental: The test substance was solubilized in 0.5% natrosol supplemented with 0.015% Tween 80 for oral application to rats at a dose of 5 mg/kg. Blood samples were collected before compound administration and 8 hours post application on ice using EDTA as coagulation agent. Subsequently, plasma was prepared by centrifugation and stored until analysis at −20° C.
LPAs from plasma samples were extracted by using the procedure described by Scherer et al. (Clinical chemistry 2009, 55, 1218-22). 35 μL of heparinized plasma was mixed with 200 μL 40 mM disodium hydrogen phosphate buffer containing 30 mM citric acid (pH 4) and 1 μM 17:0 LPA (internal standard). Subsequently, 500 μL butanol was added and shaken vigorously for 10 min. Samples were centrifuged afterwards at 4000 rpm, 4° C., for 10 min. 500 μL of the organic upper phase was transferred to a fresh 96-deep-well plate and evaporated with a gentle nitrogen flow of 15 psi for 45 min. The resultant residual was dissolved in 100 μL ethanol prior to LC-MS analysis.
LC-MS Method for the Analytic of In Vivo Samples
A Triple Quad 6500 (ABSciex, Toronto, Canada) was equipped with an Agilent 1290 LC system (Agilent, Santa Clara, CA) a CTC autosampler and an Atlantis 50×2.1-mm, 3-μm HILIC LC column (Waters, Elstree, UK). Eluent A contained 0.2% formic acid and 50 mM ammonium formate in water, whereas eluent B consisted of 0.2% formic acid in acetonitrile. […] At 1.8 min, solvent B was set back to 95% and stayed constant for 0.7 min for re-equilibration of the column. The following LPA species were monitored (DP: declustering potential and CE: collision energy): 16:0 LPA at 409.2/152.8, DP=−150, CE=−28; 18:0 LPA at 437.3/152.8, DP=−60, CE=−28; 18:1 LPA at 435.2/152.8, DP=−40, CE=−28; 18:2 LPA at 433.2/152.8, DP=−150, CE=−28; 20:4 LPA at 457.2/152.8, DP=−100, CE=−29 and 17:0 LPA at 423.5/152.8, DP=−100, CE=−36. LPA depletion in percent was calculated based on the baseline LPA levels before test compound application. The sum of LPA refers to the species 16:0; 18:0; 18:1; 18:2 and 20:4

[4] = system: LPA levels; conditions: as disclosed in literature; cited from earlier work

| IC50 [1] [nM] | IC50 [2] [nM] | Compound | LPA reduction at 8 h [3] [%] | reduction of LPA levels in vivo [4] |
| --- | --- | --- | --- | --- |
| 6.7 | 7 | CC(=O)N(C)C1CCN(c2ccc(C3(Nc4ccc(OCc5ccc(C(F)F)nc5)nn4)CC3)cc2)C1 (centres unmarked) [Example 1.7] | – | – |
| 5.3 | 5 | CC(=O)N1CCN(c2ccc([C@@H](CO)Nc3ccc(OCc4ccc(C(F)(F)F)nc4)nn3)cc2)CC1 [Example 1.9] | – | – |
| 2.2 | 2 | CC(=O)N1CCN(c2ccc(C(C)Nc3ccc(OCc4ccc(C(F)(F)F)nc4)nn3)cc2)CC1 (centres unmarked) [Example 1.3] | – | – |
| 2.6 | 7.8 | CC(=O)N1CCN(c2ccc([C@H](C)Nc3ccc(OCc4ccc(C(F)(F)F)nc4)nn3)cc2)CC1 [Example 1.6] | – | – |
| 4.8 | 7.7 | CC(=O)N1CCN(c2ccc(C3(Nc4ccc(OCc5ccc(C(F)(F)F)nc5)nn4)CC3)c(F)c2)CC1 [Example 1.12] | – | – |
| 4.4 | 6.9 | CC(=O)N1CCN(c2ccc(C3(Nc4ccc(OCc5ccc(C(F)(F)F)nc5)nn4)CC3)cn2)CC1 [Example 1.11] | 96.3 | – |
| – | – | CCc1nc2c(C)cc(N3CCN(CC(=O)N4CC(O)C4)CC3)cn2c1N(C)c1nc(-c2ccc(F)cc2)c(C#N)s1 [Example 2 in WO2014/139882, reference compound] | 58.1 | – |
| 2.4 | 3.7 | CC(=O)N1CCN(c2ccc(C3(Nc4ccc(OCc5ccc(C(F)(F)F)nc5)nn4)CC3)cc2F)CC1 [Example 1.10] | – | – |
| 3.4 | 1.8 | CC(=O)N1CCN(c2ccc([C@@H](C)Nc3ccc(OCc4ccc(C(F)(F)F)nc4)nn3)cc2)CC1 [Example 1.2] | 95.9 | – |
| 5.8 | 4.3 | CC(=O)N(C)C1CCN(c2ccc(C3(Nc4ccc(OCc5ccc(C(F)F)nc5)nn4)CC3)cc2)CC1 [Example 1.4] | 98.0 | – |
| 4.2 | 1.3 | CC(=O)N1CCN(c2ccc([C@@H](CO)Nc3ccc(OCc4ccc(C(F)F)nc4)nn3)cc2)CC1 [Example 1.8] | – | – |
| 3.4 | 7.1 | CC(=O)N1CCN(c2ccc(C3(Nc4ccc(OCc5ccc(C(F)(F)F)nc5)nn4)CC3)cc2C)CC1 [Example 1.13] | – | – |
| 4.2 | 4.3 | CC(=O)N1CCN(c2ccc(C3(Nc4ccc(OCc5ccc(C(F)F)nc5)nn4)CC3)cc2)CC1 [Example 1.5] | – | – |
| 2.5 | 3.5 | CC(=O)N1CCN(c2ccc(C3(Nc4ccc(OCc5ccc(C(F)(F)F)nc5)nn4)CC3)cc2)CC1 [Example 1.1, 1-[4-(4-{1-[(6-{[6-(trifluoromethyl)pyridin-3-yl]methoxy}pyridazin-3-yl)amino]cyclopropyl}phenyl)piperazin-1-yl]ethan-1-one] | 97.0 | – |
| – | – | O=C(NC[C@@H]1[C@H]2CN(C(=O)OCc3cc(C(F)(F)F)cc(C(F)(F)F)c3)C[C@@H]12)c1ccc2[nH]nnc2c1 | – | significantly reduces LPA levels in vivo |
